In patent US9718841B2, “Bicyclic pyrazolone compounds and methods of use” (CALITOR SCIENCES, LLC, priority 2014, dated 2017) one finds F and T1/2 data, which are given here for 6 compounds.

A short description of series [1]: Pharmacokinetic profiles in rats. Type of series: in vivo. Conditions: bioavailability. The method, then:
The compounds disclosed herein are assessed in pharmacokinetic studies in mice, rats, dogs or monkeys. The compounds are administered as a water solution, 2% HPMC+1% TWEEN® 80 in water solution, 5% DMSO+5% solutol in saline, 4% MC suspension or capsule. For the intravenous administration, the animals are generally given at 1 or 2 mg/kg dose. For the oral (p.o.) dosing, mice and rats are generally given 5 or 10 mg/kg dose, and dogs and monkeys are generally given 10 mg/kg dose. The blood samples (0.3 mL) are drawn at 0.25, 0.5, 1.0, 2.0, 3.0, 4.0, 6.0, 8.0, 12 and 24 h time points or 0.083, 0.25, 0.5, 1.0, 2.0, 4.0, 6.0, 8.0 and 24 h time points and centrifuged at 3,000 or 4000 rpm for 2 to 10 min. The plasma solutions are collected, and stored at −20° C. or −70° C. until analyzed by LC/MS/MS as described above.

Series [2] can be described thus: Compound stability in human liver microsomes. The class given is in vitro ADME. Conditions: 37° C. The method, then:
Human or rat liver microsomes incubations were conducted in duplicate in polypropylene tubes. The typical incubation mixtures consisted of human or rat liver microsomes (0.5 mg protein/mL), compounds of interest (5 μM) and NADPH (1.0 mM) in a total volume of 200 μL potassium phosphate buffer (PBS, 100 mM, pH 7.4). Compounds were dissolved in DMSO and diluted with PBS such that the final concentration of DMSO was 0.05%. The enzymatic reactions were commenced with the addition of protein after a 3-min preincubation and incubated in a water bath open to the air at 37° C. Reactions were terminated at various time points (0, 5, 10, 15, 30, 60 min) by adding equal volume of ice-cold acetonitrile. The samples were stored at −80° C. until LC/MS/MS assays.
The concentrations of compounds in the incubation mixtures of human or rat liver microsomes were determined by a LC/MS/MS method. The ranges of the linearity in the concentration range were determined for each tested compounds.
A parallel incubation was performed using denatured microsomes as the negative control, and reactions were terminated at various time points (0, 15, 60 min) after incubation at 37° C.
Dextromethorphan (70 μM) was selected as the positive control, and reactions were terminated at various time points (0, 5, 10, 15, 30, 60 min) after incubation at 37° C. […]
For orientation: Microsomes from liver hold many membrane-bound enzymes, among them those of drug oxidation.

In series [1], `Nc1cc(Oc2ccc(NC(=O)c3c4n(n(-c5ccccc5)c3=O)CCC4)cc2)ccn1` [Ex. 1, N-(4-((2-aminopyridin-4-yl)oxy)phenyl)-2-oxo-1-phenyl-2,4,5,6-tetrahydro-1H-pyrrolo[1,2-b]pyrazole-3-carboxamide] gave an F of 163.3%.

For the compound `O=C(Nc1ccc(Oc2ccnc(NC(=O)C3CC3)c2)cc1)c1c2n(n(-c3ccccc3)c1=O)CCC2` [Ex. 2, N-(4-((2-(cyclopropanecarboxamido)pyridin-4-yl)oxy)phenyl)-2-oxo-1-phenyl-2,4,5,6-tetrahydro-1H-pyrrolo[1,2-b]pyrazole-3-carboxamide], the F in series [1] is 68.1%. As to `CC(=O)Nc1cc(Oc2ccc(NC(=O)c3c4n(n(-c5ccccc5)c3=O)CCC4)cc2)ccn1` [Ex. 3, N-(4-((2-acetamidopyridin-4-yl)oxy)phenyl)-2-oxo-1-phenyl-2,4,5,6-tetrahydro-1H-pyrrolo[1,2-b]pyrazole-3-carboxamide], the F in series [1] came to 94.5%. Take `CC(=O)Nc1cc(Oc2ccc(NC(=O)c3c4n(n(-c5ccccc5)c3=O)CCOC4)nc2)ccn1` [Ex. 12, N-(5-((2-acetamidopyridin-4-yl)oxy)pyridin-2-yl)-2-oxo-1-phenyl-2,4,6,7-tetrahydro-1H-pyrazolo[5,1-c][1,4]oxazine-3-carboxamide]: in series [2], the T1/2 entry is recorded as “∞”. The compound also returned a F in series [1] of 72.1%.

Turning to `O=C(Nc1ccc(Oc2ccnc(NC(=O)C3CC3)c2)cn1)c1c2n(n(-c3ccccc3)c1=O)CCC2` [Ex. 14, N-(5-((2-(cyclopropanecarboxamido)pyridin-4-yl)oxy)pyridin-2-yl)-2-oxo-1-phenyl-2,4,5,6-tetrahydro-1H-pyrrolo[1,2-b]pyrazole-3-carboxamide], in series [1], the F amounted to 87.9%.

For `O=C(Nc1ccc(Oc2ccnc(NC(=O)C3CC3)c2)cc1)c1c2n(n(-c3ccccc3)c1=O)CCOC2` [Ex. 19, N-(4-((2-(cyclopropanecarboxamido)pyridin-4-yl)oxy)phenyl)-2-oxo-1-phenyl-2,4,6,7-tetrahydro-1H-pyrazolo[5,1-c][1,4]oxazine-3-carboxamide], the T1/2 entry in series [2] is “∞”. Moreover, the F in series [1] is reported as 66.7%.
